Experimental data reported in US10703764B2, “Benzopiperazine compositions as BET bromodomain inhibitors” (FORMA Therapeutics, Inc., priority 2013, dated 2020).

Experiments:
BRD4 BD2 = molecular target: T1, BRD4 BD2 (Homo sapiens, UniProt O60885); assay: AlphaScreen binding assay, BRD4 Bromodomain 2
T1 construct: made in house
Procedure, shortened: (§1)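 Compound dilution series were mixed with His-tagged BRD4 bromodomain and biotinylated tetra-acetylated H4 (1-21) peptide at pH 7.3 (BD1 and peptide at 50 nM, BD2 and peptide at 100 nM). Donor and acceptor beads were then added, and plates were equilibrated at least 1 h before reading. IC50 values were fitted with a four-parameter logistic model.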

BRD4 BD1 = molecular target: T2, BRD4 BD1 (Homo sapiens, UniProt O60885); assay: AlphaScreen binding assay, BRD4 Bromodomain 1
T2 construct: made in house
Procedure, shortened: as §1

MV4-11 cells = assay: Oncology cell growth assay (3-day proliferation, CellTiter-Glo); format: cell-based; conditions: Homo sapiens, MV4-11, 72 h, AML cell line MV4-11, 72 hours, compounds grouped by IC50 range, read-out: MV4-11 IC50 (inhibition of proliferation, gIC50)
Procedure, shortened: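 Luminescence from CellTiter-Glo served as the growth read-out after MV4-11 cells (3000/well) were cultured with compound for 72 hours. Final concentrations spanned 10 to 0.0045 μM in 3-fold steps. gIC50 values were derived by four-parameter logistic fitting relative to DMSO and cell-free controls.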

| Compound | IC50 (BRD4 BD2) | IC50 (BRD4 BD1) | IC50 (MV4-11 cells) |
| --- | --- | --- | --- |
| CC(=O)N1c2ccc(-c3cnn(Cc4ccno4)c3)cc2N(C(=O)C2CC2)C[C@@H]1C [Example I-663] | 50 to 500 nM | 100 to 1000 nM | 100 to 500 nM |
| CC(=O)N1c2ccc(-c3cnn(Cc4cc(C)on4)c3)cc2N(C(=O)OC(C)C)C[C@@H]1C [Example I-665] | 50 to 500 nM | 100 to 1000 nM | 100 to 500 nM |
| CC(=O)N1c2ccc(-c3cnn(CCF)c3)cc2N(C(=O)OC(C)C)C[C@@H]1C [Example I-666] | 50 to 500 nM | 100 to 1000 nM | 100 to 500 nM |
| CC(=O)N1c2ccc(-c3cnn(Cc4noc(C)n4)c3)cc2N(C(=O)C2CC2)C[C@@H]1C [Example I-668] | 50 to 500 nM | 100 to 1000 nM | 100 to 500 nM |
| CC(=O)N1c2ccc(-c3cnn(Cc4cc(C)on4)c3)cc2N(C(=O)C2CC2)C[C@@H]1C [Example I-669] | 50 to 500 nM | 100 to 1000 nM | > 500 nM |
| CC(=O)N1c2ccc(-c3cnn(CC(C)C)c3)cc2N(C(=O)C2CC2)CC1C (stereo not drawn) [Example I-670] | 50 to 500 nM | 100 to 1000 nM | 100 to 500 nM |
| CC(=O)N1c2ccc(-c3cnn(CCF)c3)cc2N(C(=O)C2CC2)C[C@@H]1C [Example I-671] | 50 to 500 nM | 100 to 1000 nM | 100 to 500 nM |
| CC(=O)N1c2ccc(-c3cnn(CCC#N)c3)cc2N(C(=O)OC(C)C)C[C@@H]1C [Example I-679] | 50 to 500 nM | 100 to 1000 nM | 100 to 500 nM |
| CC(=O)N1c2ccc(-c3cnn(Cc4ccn(C)n4)c3)cc2N(C(=O)C2CC2)C[C@@H]1C [Example I-682] | 50 to 500 nM | 100 to 1000 nM | 100 to 500 nM |
| CC(=O)N1c2ccc(-c3cnn(Cc4cncs4)c3)cc2N(C(=O)C2CC2)C[C@@H]1C [Example I-686] | 50 to 500 nM | 100 to 1000 nM | 100 to 500 nM |
| CC(C)OC(=O)N1C[C@H](C)N(C(=O)C2CC2)c2ccc(-c3cnn(C[C@@H]4CCNC4)c3)cc21 [Example I-689] | 50 to 500 nM | 100 to 1000 nM | > 500 nM |
| COC(=O)N1c2ccc(-c3cnn(C[C@H]4CCNC4)c3)cc2N(C(=O)OC(C)C)C[C@@H]1C [Example I-692] | 50 to 500 nM | 100 to 1000 nM | > 500 nM |
| CC(=O)N1c2ccc(-c3ccc(S(C)(=O)=O)cc3)cc2N(C(=O)C2CC2)C[C@@H]1C [Example I-781] | 50 to 500 nM | 1000 to 10000 nM | > 500 nM |
| CC(=O)N1c2ccc(-c3ccc(S(C)(=O)=O)cc3)cc2N(C(=O)c2cc3cccnc3[nH]2)CC1C (stereo not drawn) [Example I-789] | < 50 nM | 100 to 1000 nM | 100 to 500 nM |
| CC(=O)N1c2ccc(-c3ccc4ncccc4c3)cc2N(C(=O)COc2ccccc2)C[C@@H]1C [Example I-791] | 50 to 500 nM | 1000 to 10000 nM | > 500 nM |
| CC(=O)N1c2ccc(-c3cccc(-c4ccccc4)c3)cc2N(C(=O)COc2ccccc2)C[C@@H]1C [Example I-792] | 50 to 500 nM | > 10000 nM | > 500 nM |
| CC(=O)N1c2ccc(-c3cccc(-c4ccccc4)c3)cc2N(C(=O)c2ccco2)C[C@@H]1C [Example I-793] | 50 to 500 nM | 1000 to 10000 nM | > 500 nM |
| CC(=O)N1c2ccc(-c3ccc4c(ccn4C)c3)cc2N(C(=O)c2ccco2)C[C@@H]1C [Example I-796] | < 50 nM | 100 to 1000 nM | 100 to 500 nM |
| CC(=O)N1c2ccc(-c3ccc(-c4ccccc4)cc3)cc2N(C(=O)c2ccco2)C[C@@H]1C [Example I-798] | 50 to 500 nM | 1000 to 10000 nM | > 500 nM |
| CNC(=O)c1cccc(-c2ccc3c(c2)N(C(=O)c2ccco2)C[C@H](C)N3C(C)=O)c1 [Example I-801] | 50 to 500 nM | 100 to 1000 nM | > 500 nM |
| COc1ccc(-c2ccc3c(c2)N(C(=O)c2ccco2)C[C@H](C)N3C(C)=O)cc1 [Example I-807] | < 50 nM | 100 to 1000 nM | 100 to 500 nM |
| CC(=O)N1c2ccc(-c3ccc(C(=O)N(C)C)cc3)cc2N(C(=O)c2ccco2)C[C@@H]1C [Example I-809] | < 50 nM | 100 to 1000 nM | 100 to 500 nM |
| CC(=O)N1c2ccc(-c3ccc(C(N)=O)cc3)cc2N(C(=O)c2ccco2)C[C@@H]1C [Example I-810] | > 500 nM | 100 to 1000 nM | 100 to 500 nM |
| CC(=O)N1c2ccc(-c3cnn(C)c3)cc2N(C(=O)c2ccco2)C[C@@H]1C [Example I-822] | < 50 nM | 100 to 1000 nM | 100 to 500 nM |
| CNC(=O)c1ccc(-c2ccc3c(c2)N(C(=O)c2ccco2)C[C@H](C)N3C(C)=O)cc1 [Example I-824] | < 50 nM | 1000 to 10000 nM | 100 to 500 nM |
| CC(=O)N1c2ccc(-c3cccc(C(=O)N4CCOCC4)c3)cc2N(C(=O)c2ccco2)C[C@@H]1C [Example I-838] | < 50 nM | 100 to 1000 nM | 100 to 500 nM |
| CC(=O)N1c2ccc(-c3cccc(S(N)(=O)=O)c3)cc2N(C(=O)c2ccco2)C[C@@H]1C [Example I-841] | < 50 nM | 1000 to 10000 nM | 100 to 500 nM |
| CC(=O)N1c2ccc(-c3ccc4cnn(C)c4c3)cc2N(C(=O)c2ccco2)C[C@@H]1C [Example I-843] | < 50 nM | 100 to 1000 nM | 100 to 500 nM |

Second part, the compound after the results:

| IC50 (BRD4 BD2) | IC50 (BRD4 BD1) | IC50 (MV4-11 cells) | Compound |
| --- | --- | --- | --- |
| 50 to 500 nM | 100 to 1000 nM | > 500 nM | CC(=O)N1c2ccc(-c3cnn(CCN4CCCS4(=O)=O)c3)cc2N(C(=O)C2CC2)C[C@@H]1C [Example I-659] |
| 50 to 500 nM | 100 to 1000 nM | > 500 nM | CC(=O)N1c2ccc(-c3cnn(CC4(CO)COC4)c3)cc2N(C(=O)C2CC2)C[C@@H]1C [Example I-662] |
| 50 to 500 nM | 100 to 1000 nM | 100 to 500 nM | CCNC(=O)Cn1cc(-c2ccc3c(c2)N(C(=O)OC(C)C)C[C@H](C)N3C(C)=O)cn1 [Example I-664] |
| 50 to 500 nM | 100 to 1000 nM | 100 to 500 nM | CC(=O)N1c2ccc(-c3cnn(CC(=O)N4CCC4)c3)cc2N(C(=O)OC(C)C)C[C@@H]1C [Example I-667] |
| 50 to 500 nM | 100 to 1000 nM | 100 to 500 nM | CC(=O)N1c2ccc(-c3cnn(CCCO)c3)cc2N(C(=O)C2CC2)C[C@@H]1C [Example I-673] |
| 50 to 500 nM | 100 to 1000 nM | 100 to 500 nM | CC(=O)N1c2ccc(-c3cnn(Cc4nonc4C)c3)cc2N(C(=O)OC(C)C)C[C@@H]1C [Example I-677] |
| 50 to 500 nM | 100 to 1000 nM | 100 to 500 nM | CC(=O)N1c2ccc(-c3cnn(CC4CC4(F)F)c3)cc2N(C(=O)OC(C)C)C[C@@H]1C (stereo partly drawn) [Example I-678] |
| 50 to 500 nM | 100 to 1000 nM | 100 to 500 nM | CC(=O)N1c2ccc(-c3cnn(Cc4ccnn4C)c3)cc2N(C(=O)OC(C)C)C[C@@H]1C [Example I-680] |
| < 50 nM | 100 to 1000 nM | 100 to 500 nM | CC(=O)N1c2ccc(-c3cnn(C[C@@H]4CCNC4)c3)cc2N(C(=O)OC(C)C)C[C@@H]1C [Example I-687] |
| 50 to 500 nM | 100 to 1000 nM | 100 to 500 nM | CC(=O)N1c2ccc(-c3cnn(C[C@H]4CCNC4)c3)cc2N(C(=O)OC(C)C)C[C@@H]1C [Example I-688] |
| 50 to 500 nM | 100 to 1000 nM | > 500 nM | CC(C)OC(=O)N1C[C@H](C)N(C(=O)C2CC2)c2ccc(-c3cnn(C[C@H]4CCNC4)c3)cc21 [Example I-690] |
| 50 to 500 nM | 1000 to 10000 nM | > 500 nM | CC(=O)N1c2ccc(-c3ccc(S(C)(=O)=O)cc3)cc2N(C(=O)c2cc3cnccc3[nH]2)CC1C (stereo not drawn) [Example I-778] |
| 50 to 500 nM | 1000 to 10000 nM | > 500 nM | CC(=O)N1c2ccc(-c3ccc(S(C)(=O)=O)cc3)cc2N(C(=O)c2cc3cc(O)ccc3[nH]2)CC1C (stereo not drawn) [Example I-786] |
| > 500 nM | 1000 to 10000 nM | > 500 nM | CC(=O)N1c2ccc(-c3ccccc3F)cc2N(C(=O)COc2ccccc2)C[C@@H]1C [Example I-794] |
| 50 to 500 nM | 1000 to 10000 nM | > 500 nM | CC(=O)N1c2ccc(-c3ccccc3F)cc2N(C(=O)c2ccco2)C[C@@H]1C [Example I-795] |
| 50 to 500 nM | 1000 to 10000 nM | > 500 nM | CC(=O)N1c2ccc(-c3ccc(C(=O)O)cc3)cc2N(C(=O)c2ccco2)C[C@@H]1C [Example I-799] |
| 50 to 500 nM | 1000 to 10000 nM | 100 to 500 nM | CC(=O)N1c2ccc(-c3ccc(N4CCOCC4)nc3)cc2N(C(=O)c2ccco2)C[C@@H]1C [Example I-800] |
| < 50 nM | 1000 to 10000 nM | 100 to 500 nM | CC(=O)N1c2ccc(-c3ccccc3)cc2N(C(=O)c2ccco2)C[C@@H]1C [Example I-804] |
| 50 to 500 nM | 1000 to 10000 nM | 100 to 500 nM | CC(=O)N1c2ccc(-c3ccc4c(c3)OCO4)cc2N(C(=O)c2ccco2)C[C@@H]1C [Example I-806] |
| < 50 nM | 1000 to 10000 nM | 100 to 500 nM | CC(=O)N1c2ccc(-c3ccc(S(C)(=O)=O)cc3)cc2N(C(=O)c2ccco2)C[C@@H]1C [Example I-817] |
| < 50 nM | 100 to 1000 nM | > 500 nM | CC(=O)N1c2ccc(-c3ccc4c(c3)OCCO4)cc2N(C(=O)c2ccco2)C[C@@H]1C [Example I-825] |
| < 50 nM | 100 to 1000 nM | 100 to 500 nM | CC(=O)N1c2ccc(-c3cccc(NS(C)(=O)=O)c3)cc2N(C(=O)c2ccco2)C[C@@H]1C [Example I-844] |
